Experimental data as given in patent publication US7714047B2, “Process for producing aqueous fluoropolymer dispension and aqueous fluoropolymer dispersion” (Daikin Industries, Ltd., priority 2003, dated 2010).

Experiment: Octanol/water partition coefficient (log P) by HPLC elution time against a working curve of standard substances
Assay type: physicochemical
Settings: Tosoh ODS-120T column, acetonitrile/0.6% (by mass) aqueous HClO4 = 1/1, 40° C., UV 210 nm, standards heptanoic, octanoic, nonanoic and decanoic acid
Experimental: The octanol/water partition coefficient is the coefficient of partition between 1-octanol and water and is expressed in terms of log P [wherein P represents the ratio between the fluorine-containing surfactant (A) concentration in octanol/fluorine-containing surfactant (A) concentration in water as found upon phase separation of a fluorine-containing surfactant (A)-containing octanol/water mixture (1:1)]. The octanol/water partition coefficient is determined by the measurement method according to OECD Guideline 107. In measuring the octanol/water partition coefficient, such methods as the flask shaking method and reversed-phase high performance liquid chromatography can generally be employed.
(5) Octanol/Water Partition Coefficient
Standard substances (heptanoic acid, octanoic acid, nonanoic acid and decanoic acid) each having a known octanol/water partition coefficient were subjected to HPLC under the following conditions: column: Tosoh ODS-120T column (ø4.6 mm×250 mm), eluent: acetonitrile/0.6% (by mass) aqueous solution of HClO4=1/1 (vol/vol %), flow rate: 1.0 ml/minute, sample size: 300 μL, column temperature: 40° C., detection light: UV 210 nm. A working curve showing the relation between the elution time and the known octanol/water partition coefficient was then constructed. The coefficient in question was determined from the elution time in HPLC for the sample solution based on that working curve.

Row | Compound | logP: octanol/water partition coefficient
1 | N.O=C(O)C(F)(F)C(F)(F)C(F)(F)C(F)(F)C(F)(F)C(F)F [Fluorine-containing surfactant 1, H(CF2CF2)3COONH4] | 2.4
2 | N.O=C(O)C(F)(OC(F)(F)C(F)(F)C(F)(F)F)C(F)(F)F (centres unmarked) [Fluorine-containing surfactant 2, C3F7OCF(CF3)COONH4] | 2.5
3 | N.O=C(O)C(F)(OC(F)(F)C(F)(OC(F)(F)F)C(F)(F)F)C(F)(F)F (centres unmarked) [Fluorine-containing surfactant 3, CF3O(CF(CF3)CF2O)CF(CF3)COONH4] | 3.4
4 | N.O=C(O)C(F)(F)C(F)(F)C(F)(F)C(F)(F)C(F)(F)C(F)(F)C(F)(F)F [Fluorine-containing surfactant 5, CF3(CF2CF2)3COONH4] | 3.5
5 | CF3CF2(CF2CF2)2COONH4 [Fluorine-containing surfactant 4] | 3.0
